Source: PubChem BioAssay (NCI)
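1) Cells in 96-well plates. 2) Compound, 48 h, 5 concentrations. 3) Linear interpolation between surrounding doses. 4) Unreached endpoint = highest concentration. GI50 marks 50% less growth. Definition used: TGI = concentration required for complete inhibition of growth.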

What was measured:
Test in all cases: NCI-60 cell line screen, 48 h
K-562 leukemia = tested on: K-562 leukemia
UO-31 renal = tested on: UO-31 renal
HCT-15 colon = tested on: HCT-15 colon
MOLT-4 leukemia = tested on: MOLT-4 leukemia
RXF 393 renal = tested on: RXF 393 renal
UACC-257 melanoma = tested on: UACC-257 melanoma
NCI-H226 lung = tested on: NCI-H226 lung
NCI-H23 lung = tested on: NCI-H23 lung
MDA-MB-435 = tested on: MDA-MB-435
HOP-92 NSCLC = tested on: HOP-92 NSCLC
UACC-62 melanoma = tested on: UACC-62 melanoma
SK-MEL-28 melanoma = tested on: SK-MEL-28 melanoma
MCF7 breast = tested on: MCF7 breast
RPMI-8226 leukemia = tested on: RPMI-8226 leukemia
HL-60(TB) leukemia = tested on: HL-60(TB) leukemia
TK-10 renal = tested on: TK-10 renal
NCI-H460 lung = tested on: NCI-H460 lung
U251 CNS = tested on: U251 CNS
BT-549 breast = tested on: BT-549 breast
OVCAR-5 ovarian = tested on: OVCAR-5 ovarian
SR leukemia = tested on: SR leukemia
OVCAR-3 ovarian = tested on: OVCAR-3 ovarian
A549 NSCLC = tested on: A549 NSCLC
IGROV1 ovarian = tested on: IGROV1 ovarian
SK-OV-3 ovarian = tested on: SK-OV-3 ovarian
SF-539 CNS = tested on: SF-539 CNS
OVCAR-4 ovarian = tested on: OVCAR-4 ovarian
HT29 colon = tested on: HT29 colon
M14 melanoma = tested on: M14 melanoma
SW-620 colon = tested on: SW-620 colon
SNB-19 CNS = tested on: SNB-19 CNS
SK-MEL-5 melanoma = tested on: SK-MEL-5 melanoma
EKVX NSCLC = tested on: EKVX NSCLC
PC-3 prostate = tested on: PC-3 prostate
SK-MEL-2 melanoma = tested on: SK-MEL-2 melanoma
HCC-2998 colon = tested on: HCC-2998 colon
T-47D breast = tested on: T-47D breast
HOP-62 NSCLC = tested on: HOP-62 NSCLC
COLO 205 colon = tested on: COLO 205 colon
SN12C renal = tested on: SN12C renal
OVCAR-8 ovarian = tested on: OVCAR-8 ovarian
SNB-75 CNS = tested on: SNB-75 CNS
HS 578T breast = tested on: HS 578T breast
MDA-MB-231 breast = tested on: MDA-MB-231 breast
786-0 renal = tested on: 786-0 renal
NCI-H522 lung = tested on: NCI-H522 lung
A498 renal = tested on: A498 renal
MALME-3M melanoma = tested on: MALME-3M melanoma
NCI/ADR-RES ovarian = tested on: NCI/ADR-RES ovarian
CCRF-CEM leukemia = tested on: CCRF-CEM leukemia
LOX IMVI melanoma = tested on: LOX IMVI melanoma
DU-145 prostate = tested on: DU-145 prostate
SF-295 CNS = tested on: SF-295 CNS
SF-268 CNS = tested on: SF-268 CNS
KM12 colon = tested on: KM12 colon
ACHN renal = tested on: ACHN renal
CAKI-1 renal = tested on: CAKI-1 renal

CSc1n[nH]c2c1c(C)nn2-c1ccccc1
TGI (K-562 leukemia): > 100 µM
TGI (UO-31 renal): > 100 µM
TGI (HCT-15 colon): > 100 µM
TGI (MOLT-4 leukemia): > 100 µM
TGI (RXF 393 renal): > 100 µM
TGI (UACC-257 melanoma): > 100 µM
TGI (NCI-H226 lung): > 100 µM
TGI (NCI-H23 lung): > 100 µM
TGI (MDA-MB-435): > 100 µM
TGI (HOP-92 NSCLC): > 100 µM
TGI (UACC-62 melanoma): > 100 µM
TGI (SK-MEL-28 melanoma): > 100 µM
TGI (MCF7 breast): > 100 µM
TGI (RPMI-8226 leukemia): > 100 µM
TGI (HL-60(TB) leukemia): > 100 µM
TGI (TK-10 renal): > 100 µM
TGI (NCI-H460 lung): > 100 µM
TGI (U251 CNS): > 100 µM
TGI (BT-549 breast): > 100 µM
TGI (OVCAR-5 ovarian): > 100 µM
TGI (SR leukemia): > 100 µM
TGI (OVCAR-3 ovarian): > 100 µM
TGI (A549 NSCLC): > 100 µM
TGI (IGROV1 ovarian): > 100 µM
TGI (SK-OV-3 ovarian): > 100 µM
TGI (SF-539 CNS): > 100 µM
TGI (OVCAR-4 ovarian): > 100000 nM
TGI (HT29 colon): > 100 µM
TGI (M14 melanoma): > 100 µM
TGI (SW-620 colon): > 100000 nM
TGI (SNB-19 CNS): > 100 µM
TGI (SK-MEL-5 melanoma): > 100 µM
TGI (EKVX NSCLC): > 100 µM
TGI (PC-3 prostate): > 100000 nM
TGI (SK-MEL-2 melanoma): > 100 µM
TGI (HCC-2998 colon): > 100 µM

COc1ccc2nc(-c3ccc(Cl)cc3)cc(-c3nnc(SCC(=O)Nc4ccc(/C(C)=N\O)cc4)o3)c2c1
GI50 (T-47D breast): 981 nM
TGI (T-47D breast): 3.97 µM
GI50 (HOP-62 NSCLC): 1630 nM
TGI (HOP-62 NSCLC): 7 µM
GI50 (K-562 leukemia): 2830 nM
TGI (K-562 leukemia): > 50 µM
GI50 (UO-31 renal): 3.26 µM
TGI (UO-31 renal): 20.5 µM
GI50 (HCT-15 colon): 1880 nM
TGI (HCT-15 colon): 16.4 µM
GI50 (MOLT-4 leukemia): 2180 nM
TGI (MOLT-4 leukemia): > 50 µM
GI50 (RXF 393 renal): 1510 nM
TGI (RXF 393 renal): 5.97 µM
GI50 (UACC-257 melanoma): 2160 nM
TGI (UACC-257 melanoma): 9.51 µM
GI50 (NCI-H226 lung): 3.86 µM
TGI (NCI-H226 lung): 14.4 µM
GI50 (COLO 205 colon): 1150 nM
TGI (COLO 205 colon): 3.53 µM
GI50 (NCI-H23 lung): 1380 nM
TGI (NCI-H23 lung): 4.3 µM
GI50 (MDA-MB-435): 1260 nM
TGI (MDA-MB-435): 4.08 µM
GI50 (SN12C renal): 1800 nM
TGI (SN12C renal): 7.29 µM
GI50 (OVCAR-8 ovarian): 1150 nM
TGI (OVCAR-8 ovarian): 2780 nM
GI50 (HOP-92 NSCLC): 1770 nM
TGI (HOP-92 NSCLC): 5.26 µM
GI50 (SNB-75 CNS): 1080 nM
TGI (SNB-75 CNS): 6.34 µM
GI50 (HS 578T breast): 2770 nM
TGI (HS 578T breast): 17.9 µM
GI50 (UACC-62 melanoma): 2890 nM
TGI (UACC-62 melanoma): 9.93 µM
GI50 (MDA-MB-231 breast): 2050 nM
TGI (MDA-MB-231 breast): 8.34 µM
GI50 (786-0 renal): 1020 nM
TGI (786-0 renal): 3.04 µM
GI50 (SK-MEL-28 melanoma): 1810 nM
TGI (SK-MEL-28 melanoma): 7.63 µM
GI50 (NCI-H522 lung): 1200 nM
TGI (NCI-H522 lung): 3.83 µM
GI50 (RPMI-8226 leukemia): 2180 nM
TGI (RPMI-8226 leukemia): > 50 µM
GI50 (A498 renal): 2940 nM
TGI (A498 renal): 11 µM
GI50 (HL-60(TB) leukemia): > 50 µM
TGI (HL-60(TB) leukemia): > 50 µM
GI50 (MALME-3M melanoma): 1280 nM
TGI (MALME-3M melanoma): 3.97 µM
GI50 (TK-10 renal): 1610 nM
TGI (TK-10 renal): 8.05 µM
GI50 (NCI-H460 lung): 1100 nM
TGI (NCI-H460 lung): 2.32 µM
GI50 (NCI/ADR-RES ovarian): 1290 nM
TGI (NCI/ADR-RES ovarian): 3.75 µM
GI50 (U251 CNS): 974 nM
TGI (U251 CNS): 1.9 µM
GI50 (BT-549 breast): 3.7 µM
TGI (BT-549 breast): 18.9 µM
GI50 (OVCAR-5 ovarian): 2060 nM
TGI (OVCAR-5 ovarian): 10.2 µM
GI50 (CCRF-CEM leukemia): 2490 nM
TGI (CCRF-CEM leukemia): > 50 µM
GI50 (LOX IMVI melanoma): 1760 nM
TGI (LOX IMVI melanoma): 6.92 µM
GI50 (SR leukemia): 1720 nM
TGI (SR leukemia): > 50 µM
GI50 (OVCAR-3 ovarian): 1580 nM
TGI (OVCAR-3 ovarian): 5.47 µM
GI50 (A549 NSCLC): 1230 nM
TGI (A549 NSCLC): 3.21 µM
GI50 (IGROV1 ovarian): 3.93 µM
TGI (IGROV1 ovarian): 20.6 µM
GI50 (SK-OV-3 ovarian): 6.23 µM
TGI (SK-OV-3 ovarian): 18.7 µM
GI50 (SF-539 CNS): 3000 nM
TGI (SF-539 CNS): 10.7 µM
GI50 (OVCAR-4 ovarian): 904 nM
TGI (OVCAR-4 ovarian): 1840 nM
GI50 (HT29 colon): 1400 nM
TGI (HT29 colon): 5.54 µM
GI50 (M14 melanoma): 1810 nM
TGI (M14 melanoma): 7.58 µM
GI50 (SW-620 colon): 1150 nM
TGI (SW-620 colon): 2540 nM
GI50 (DU-145 prostate): 1520 nM
TGI (DU-145 prostate): 5.53 µM
GI50 (SNB-19 CNS): 1180 nM
TGI (SNB-19 CNS): 3.09 µM
GI50 (SF-295 CNS): 1090 nM
TGI (SF-295 CNS): 3.08 µM
GI50 (SK-MEL-5 melanoma): 1710 nM
TGI (SK-MEL-5 melanoma): 7.52 µM
GI50 (EKVX NSCLC): 3.01 µM
TGI (EKVX NSCLC): 15.3 µM
GI50 (SF-268 CNS): 1440 nM
TGI (SF-268 CNS): 5.06 µM
GI50 (PC-3 prostate): 1290 nM
TGI (PC-3 prostate): 2970 nM
GI50 (KM12 colon): 1530 nM
TGI (KM12 colon): 5.46 µM
GI50 (SK-MEL-2 melanoma): 2460 nM
TGI (SK-MEL-2 melanoma): 9.77 µM
GI50 (ACHN renal): 1850 nM
TGI (ACHN renal): 8.04 µM
GI50 (HCC-2998 colon): 2980 nM
TGI (HCC-2998 colon): 31.5 µM

C#CCn1c(=O)c(I)cn(/C(=C\C(=O)OCC)C(=O)OCC)c1=O
TGI (HOP-62 NSCLC): 33.6 µM
TGI (NCI-H226 lung): 38.2 µM
TGI (MDA-MB-435): 30.9 µM
TGI (SNB-75 CNS): 30.9 µM
TGI (HS 578T breast): > 100 µM
TGI (UACC-62 melanoma): 30.6 µM
TGI (A498 renal): 31.9 µM
TGI (NCI-H460 lung): 39.9 µM
TGI (NCI/ADR-RES ovarian): 65.1 µM
TGI (U251 CNS): 29.1 µM
TGI (OVCAR-5 ovarian): 40.2 µM
TGI (A549 NSCLC): > 100 µM
TGI (SK-OV-3 ovarian): 31.8 µM
TGI (SF-539 CNS): 33.4 µM
TGI (DU-145 prostate): 31.3 µM
TGI (SNB-19 CNS): 64 µM
TGI (SF-295 CNS): 36.8 µM
TGI (KM12 colon): 31.7 µM
TGI (SK-MEL-2 melanoma): 37.2 µM

C=C(C)[C@@H]1CC[C@]2(C)[C@H](CC=C3[C@@H]4CC(C)(C)CC[C@]4(CO)CC[C@]32C)[C@@]1(C)CCCN
GI50 (K-562 leukemia): 2170 nM
TGI (K-562 leukemia): 8.26 µM
GI50 (NCI-H226 lung): 5.31 µM
TGI (NCI-H226 lung): 27.7 µM
GI50 (CAKI-1 renal): 1730 nM
TGI (CAKI-1 renal): 3.1 µM
GI50 (MDA-MB-435): 1620 nM
TGI (MDA-MB-435): 2.98 µM
GI50 (UACC-62 melanoma): 1680 nM
TGI (UACC-62 melanoma): 3.05 µM
GI50 (A498 renal): 1490 nM
TGI (A498 renal): 2.81 µM
GI50 (MALME-3M melanoma): 1550 nM
TGI (MALME-3M melanoma): 2.96 µM
GI50 (SK-OV-3 ovarian): 1.88 µM
TGI (SK-OV-3 ovarian): 3.33 µM
GI50 (SF-539 CNS): 1650 nM
TGI (SF-539 CNS): 3.02 µM
GI50 (M14 melanoma): 1650 nM
TGI (M14 melanoma): 3.1 µM
GI50 (SK-MEL-5 melanoma): 1680 nM
TGI (SK-MEL-5 melanoma): 3.05 µM
GI50 (SK-MEL-2 melanoma): 1980 nM
TGI (SK-MEL-2 melanoma): 3.58 µM
